Results: patent US5158940A (priority 1990, dated 1992)
Counter-ions that a name gives are not always drawn.

Key:
rheumatoid arthritis = type: in vivo, person
Excerpt: A person was initially diagnosed in 1975 with polyarthritis and an elevated serum rheumatoid factor level. Since then, the patient had required almost uninterrupted treatment with either supraphysiologic doses of steroid or remission-inducing agents. These included hydroxycloroquine, gold salts, cytoxan and most recently, penicillamine together with prednisone.
Prior to initiating suramin therapy, penicillamine and prednisone were discontinued and the patient was placed on physiologic replacement doses of hydrocortisone. […] Their serum rheumatoid factor titer was 1:2560. Serum antinuclear antibodies were absent and both anti-DNA screen and LE cell test were negative.

[1] = in vivo; cited from earlier work
[2] = system: reverse transcriptase enzyme; details: in vitro; JAMA 258 p. 1347-51 (1987); cited from earlier work
[3] = system: human immunodeficiency virus (HIV); details: in vitro; JAMA 258 p. 1347-51 (1987); cited from earlier work
various growth factors = details: in vitro; J. Cellular Physiology 132 p. 143-8 (1987); cited from earlier work
[4] = system: cytoplasmic and intranuclear enzymes; details: Cancer Res. 47 p. 4694-8 (1987) and J. Clin. Onc. 7 p. 499-508 (1989); cited from earlier work
parasitic infections = details: one gram bolus parenterally once per week for six weeks, total six grams; cited from earlier work
[5] = nine months after initial start, no suramin after third cycle at six months
[6] = treatment period plus three months afterwards without suramin

Compound: Cc1ccc(C(=O)Nc2ccc(S(=O)(=O)O)c3cc(S(=O)(=O)O)cc(S(=O)(=O)O)c23)cc1NC(=O)c1cccc(NC(=O)Nc2cccc(C(=O)Nc3cc(C(=O)Nc4ccc(S(=O)(=O)O)c5cc(S(=O)(=O)O)cc(S(=O)(=O)O)c45)ccc3C)c2)c1 [Suramin, hexasodium salt of 8,8'-(carbonyl-bis(imino-3,1-phenylenecarbonylimino(4-methyl-3,1-phenylene)carbonylimo))bis-1,3,5-naphthalenetrisulfonic acid]
- formal rheumatologic evaluation (inflammatory joint disease, synovial proliferation) (rheumatoid arthritis; at the end of therapy): virtually no inflammatory joint disease with only minimal synovial proliferation in the ulnar carpal region of their right wrist
- joint abnormalities in follow up hand photograph (rheumatoid arthritis; follow up hand photograph): failed to show any significant change in their minimal joint abnormalities
- hematologic, hepatic or renal toxicity (rheumatoid arthritis; in vivo): did not experience any significant hematologic, hepatic or renal toxicity
- size of rheumatoid nodules (rheumatoid arthritis; initially documented after three months, more pronounced at five months): regression in the size of their multiple rheumatoid nodules
- arthritic symptoms at nine months (rheumatoid arthritis; [5]): continued to remain without arthritic symptoms
- size of remaining rheumatoid nodules (rheumatoid arthritis; [5]): remained unchanged
- disappearance of rheumatoid nodules (rheumatoid arthritis; start of third cycle at five months): complete disappearance of as many as a third
- arthritic symptoms (rheumatoid arthritis; [6]): improvement in their arthritic symptoms
- synovial swelling (rheumatoid arthritis; [6]): decreased synovial swelling
- plasma half-life [1]: 45 to 55 days
- ability to inhibit the reverse transcriptase enzyme [2]: inhibit the reverse transcriptase enzyme
- ability to revert the cytopathic effect of HIV [3]: revert the cytopathic effect of human immunodeficiency virus (HIV) in vitro
- ability to inhibit the activity of various growth factors (various growth factors): inhibit the activity of various growth factors in vitro
- binding to a variety of cytoplasmic and intranuclear enzymes [4]: bind to a variety of cytoplasmic and intranuclear enzymes
- effectiveness for treating parasitic infections (parasitic infections): generally effective for treating parasitic infections
